Results as given in the supplement of paper PMC10307832.

What was measured:
Test in all cases: relative viability (nuclei count vs DMSO), 5 days (fraction); higher = more cells survive
Adavosertib + Lapatinib = compound: C=CCn1c(=O)c2cnc(Nc3ccc(N4CCN(C)CC4)cc3)nc2n1-c1cccc(C(C)(C)O)n1 [Adavosertib] + CS(=O)(=O)CCNCc1ccc(-c2ccc3ncnc(Nc4ccc(OCc5cccc(F)c5)c(Cl)c4)c3c2)o1 [Lapatinib] (partner 2 µM)
Outline: (§1)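 Each reported value is a median over duplicate plates. It expresses relative viability: treated-well nuclei count divided by vehicle-well nuclei count. Lung cancer cell lines in 1536-well plates were dosed by pin tool a day after seeding, alone with one drug or with a fixed anchor-drug dose plus five library-drug doses (not always all listed) in √10 steps, and nuclei were counted after 5 days.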

Nelarabine + OSI-027 = compound: COc1nc(N)nc2c1ncn2[C@@H]1O[C@H](CO)[C@@H](O)[C@@H]1O [Nelarabine] + COc1cccc2cc(-c3nc([C@H]4CC[C@H](C(=O)O)CC4)n4ncnc(N)c34)[nH]c12 [OSI-027] (partner 0.5 µM)
Outline: as §1

Adavosertib + Foretinib = compound: C=CCn1c(=O)c2cnc(Nc3ccc(N4CCN(C)CC4)cc3)nc2n1-c1cccc(C(C)(C)O)n1 [Adavosertib] + COc1cc2c(Oc3ccc(NC(=O)C4(C(=O)Nc5ccc(F)cc5)CC4)cc3F)ccnc2cc1OCCCN1CCOCC1 [Foretinib] (partner 0.25 µM)
Outline: as §1

Nelarabine + Olaparib = compound: COc1nc(N)nc2c1ncn2[C@@H]1O[C@H](CO)[C@@H](O)[C@@H]1O [Nelarabine] + O=C(c1cc(Cc2n[nH]c(=O)c3ccccc23)ccc1F)N1CCN(C(=O)C2CC2)CC1 [Olaparib] (partner 8 µM)
Outline: as §1

Cell Line | relative viability (Adavosertib + Lapatinib; first compound 0.01 µM) | relative viability (Adavosertib + Lapatinib; first compound 0.03162 µM) | relative viability (Adavosertib + Lapatinib; first compound 0.1 µM) | relative viability (Adavosertib + Lapatinib; first compound 0.3162 µM) | relative viability (Nelarabine + OSI-027; first compound 0.01 µM) | relative viability (Nelarabine + OSI-027; first compound 0.03162 µM) | relative viability (Nelarabine + OSI-027; first compound 0.1 µM) | relative viability (Nelarabine + OSI-027; first compound 0.3162 µM) | relative viability (Nelarabine + OSI-027; first compound 1 µM) | relative viability (Adavosertib + Foretinib; first compound 0.01 µM) | relative viability (Adavosertib + Foretinib; first compound 0.03162 µM) | relative viability (Adavosertib + Foretinib; first compound 0.1 µM) | relative viability (Adavosertib + Foretinib; first compound 0.3162 µM) | relative viability (Nelarabine + Olaparib; first compound 0.01 µM) | relative viability (Nelarabine + Olaparib; first compound 0.03162 µM) | relative viability (Nelarabine + Olaparib; first compound 0.1 µM) | relative viability (Nelarabine + Olaparib; first compound 0.3162 µM) | relative viability (Nelarabine + Olaparib; first compound 1 µM)
SK-LU-1 | 0.857 | 0.834 | 0.787 | 0.281 | 0.287 | 0.267 | 0.364 | 0.396 | 0.327 | 0.773 | 0.831 | 0.563 | 0.311 | 0.524 | 0.314 | 0.5 | 0.505 | 0.397
NCI-H1755 | 1.12 | 1.02 | 1.04 | 1.09 | 0.647 | 0.642 | 0.699 | 0.835 | 0.781 | 0.881 | 0.893 | 0.912 | 0.918 | 0.878 | 0.966 | 0.931 | 0.938 | 0.927
NCI-H647 | 1.23 | 1.08 | 1.08 | 0.727 | 0.481 | 0.683 | 0.68 | 0.68 | 0.571 | 1.15 | 1.33 | 1.04 | 1.12 | 0.57 | 0.498 | 0.633 | 0.541 | 0.647
NCI-H1734 | 1.07 | 1.07 | 1.07 | 0.825 | 0.759 | 0.609 | 0.547 | 0.582 | 0.619 | 0.954 | 0.831 | 0.82 | 0.759 | 0.688 | 0.597 | 0.689 | 0.61 | 0.654
NCI-H727 | 0.872 | 0.859 | 0.852 | 1.02 | 0.565 | 0.722 | 0.534 | 0.562 | 0.695 | 0.689 | 1.07 | 0.917 | 0.831 | 0.697 | 0.559 | 0.636 | 0.731 | 0.656
NCI-H2009 | 0.975 | 0.99 | 1.05 | 0.926 | 0.767 | 0.643 | 0.546 | 0.696 | 0.71 | 1.17 | 1.21 | 1.26 | 1.2 | 0.746 | 0.607 | 0.834 | 0.725 | 0.855
LC-2-ad | 0.964 | 0.954 | 0.991 | 0.906 | 0.922 | 0.879 | 0.754 | 0.81 | 0.875 | 0.823 | 0.995 | 0.958 | 0.889 | 0.748 | 0.39 | 0.668 | 0.753 | 0.701
NCI-H2085 | 0.743 | 0.813 | 0.86 | 0.836 | 0.945 | 0.849 | 0.664 | 0.797 | 0.748 | 0.785 | 0.954 | 0.887 | 0.921 | 0.815 | 0.768 | 0.731 | 0.802 | 0.74
NCI-H661 | 0.542 | 0.601 | 0.514 | 0.363 | 0.53 | 0.652 | 0.738 | 0.775 | 0.651 | 1.07 | 1.07 | 1.12 | 0.839 | 0.876 | 0.709 | 0.762 | 0.748 | 0.796
H3255 | 0.25 | 0.251 | 0.219 | 0.203 |  | 0.653 | 0.637 | 0.585 | 0.456 | 0.892 | 0.851 | 0.921 | 1.04 | 0.624 | 0.553 | 0.54 | 0.583 | 0.558
NCI-H1793 | 0.61 | 0.714 | 0.721 | 0.647 | 0.327 | 0.238 | 0.247 | 0.372 | 0.326 | 0.633 | 0.599 | 0.644 | 0.508 | 1.36 |  | 0.891 | 1.29 | 1.05
NCI-H838 | 0.975 | 0.921 | 0.976 | 1.07 | 0.463 | 0.377 | 0.324 | 0.426 | 0.45 | 1.06 | 1.06 | 1.04 | 1.19 | 0.839 | 0.743 | 0.849 | 0.89 | 0.852
NCI-H460 | 1.11 | 0.978 | 1.04 | 0.83 | 1.06 | 1.08 | 0.971 | 1.08 | 0.79 | 1.05 | 0.933 | 1.1 | 0.994 | 0.748 | 0.581 | 0.479 | 0.552 | 0.521
NCI-H1650 | 0.75 | 0.884 | 0.747 | 0.379 | 0.713 | 0.619 | 0.458 | 0.767 | 0.61 | 1.12 | 1.15 | 1.31 | 0.797 | 0.922 | 0.81 | 1 | 0.883 | 0.946
PC-14 | 0.344 | 0.319 | 0.297 | 0.407 | 1.41 | 0.97 | 0.936 | 1.22 | 1.05 | 0.934 | 0.957 | 0.933 | 0.636 | 0.265 | 0.205 | 0.31 | 0.251 | 0.294
LXF-289 | 0.905 | 0.894 | 0.906 | 0.922 | 0.899 | 0.97 | 0.966 | 0.958 | 0.736 | 1.01 | 0.973 | 0.973 | 1.03 | 1.2 | 1.13 | 1.01 | 1.04 | 1.01
UMC-11 | 0.939 | 0.999 | 0.851 | 1.28 | 0.655 | 0.569 | 0.586 | 0.476 | 0.503 | 0.981 | 1.06 | 1.06 | 1.08 | 0.36 | 0.469 | 0.356 | 0.386 | 0.357
A-427 | 1.01 | 1.02 | 1.07 | 0.999 | 0.489 | 0.42 | 0.373 | 0.443 | 0.52 | 0.929 | 1.02 | 1.09 | 0.851 | 0.796 | 0.818 | 0.812 | 0.803 | 0.704
LOU-NH91 | 0.74 | 0.804 | 0.734 | 0.674 | 0.738 | 0.785 | 0.657 | 0.765 | 0.748 | 0.875 | 0.945 | 0.943 | 0.88 | 0.997 | 0.922 | 0.873 | 0.882 | 0.925
RERF-LC-KJ | 0.915 | 0.826 | 0.89 | 0.825 | 0.654 | 0.524 | 0.505 | 0.59 | 0.627 | 0.857 | 0.844 | 0.882 | 0.954 | 0.946 | 1 | 1.11 | 0.987 | 0.852
NCI-H1666 | 0.618 | 0.667 | 0.65 | 0.575 | 0.874 | 0.955 | 0.89 | 0.915 | 0.908 | 0.93 | 0.953 | 0.961 | 0.887 | 0.681 | 0.638 | 0.737 | 0.665 | 0.769
NCI-H322M |  | 0.558 | 0.505 | 0.435 | 0.575 | 0.544 | 0.431 | 0.516 | 0.612 | 0.886 | 0.978 | 0.821 | 0.517 | 0.79 | 0.75 | 0.701 | 0.827 | 0.836
HCC-366 | 1.09 | 1.07 | 1.08 | 1.13 | 1.3 | 0.737 | 0.878 | 1.28 | 0.973 | 0.96 | 0.935 | 0.924 | 1.04 | 0.33 | 0.327 | 0.434 | 0.385 | 0.389
